Results from patent publication US4698352A, “4-oxo-1,4-dihydronicotinic acid derivatives, salts thereof, and antibacterial agents containing the same” (Toyama Chemical Co., Ltd., priority 1982, dated 1987).
Values after ≈ are worked out from the molar mass of the structure shown. Where two headings read alike, the source gives them in different places.

What was measured:
Experiment in all cases: Antibacterial activity (MIC), agar dilution
Type in all cases: cell-based
Kl. pneumoniae Y-4* = conditions: Klebsiella pneumoniae, 20 h, Kl. pneumoniae Y-4, penicillinase-producing; 10^6 cells per ml; read-out: MIC
Text: (§1) The amount of bacteria inoculated was 10^4 cells per plate (10^6 cells per ml).
(§2) * Penicillinase-producing bacteria

St. aureus F-137* = conditions: Staphylococcus aureus, 20 h
Text: as §1, §2

E. coli TK-3* = conditions: Escherichia coli, 20 h, E. coli TK-3, penicillinase-producing; 10^6 cells per ml; read-out: MIC
Text: as §1, §2

Ps. aeruginosa GN3379* = conditions: Pseudomonas aeruginosa, Ps. aeruginosa GN3379, penicillinase-producing, 10^6 cells per ml
Text: as §1, §2

Ps. aeruginosa S-68 = conditions: Pseudomonas aeruginosa
Text: as §1

E. coli NIHJ JC-2 = conditions: Escherichia coli, NIHJJC2, 20 h
Text: as §1

St. aureus FDA209P = conditions: Staphylococcus aureus, FDA209P, 20 h
Text: as §1

Aci. antitratus A-6 = conditions: 20 h, Aci. antitratus A-6; 10^6 cells per ml; 37° C., 20 hours; read-out: MIC
Text: as §1

Kl. pneumoniae Y-41 = conditions: Klebsiella pneumoniae, Y41, 10^6 cells per ml, 37° C., 20 hours, read-out: MIC
Text: as §1

Ent. cloacae IID977 = conditions: Enterobacter cloacae, IID977, 20 h
Text: as §1

E. coli TK-111 = conditions: Escherichia coli, TK111, 20 h, E. coli TK-111; 10^6 cells per ml; 37° C., 20 hours; read-out: MIC
Text: as §1

Pro. mirabilis T-111 = conditions: Proteus mirabilis, 37° C.
Text: as §1

Kl. pneumoniae Y-50 = conditions: Klebsiella pneumoniae, Y50, 20 h, 10^6 cells per ml, 37° C., read-out: MIC
Text: as §1

Ps. aeruginosa IFO3445 = conditions: Pseudomonas aeruginosa
Text: as §1

Pro. morganii T-216 = conditions: Morganella morganii, 37° C.
Text: as §1

Pro. vulgaris GN3027 = conditions: Proteus vulgaris, GN3027, 20 h
Text: as §1

Ps. aeruginosa GN918** = conditions: Pseudomonas aeruginosa, Ps. aeruginosa GN918, cephalospolinase-producing, 10^6 cells per ml
Text: as §1
(§3) ** Cephalospolinase-producing bacteria

E. coli GN5482** = conditions: Escherichia coli, 20 h; E. coli GN5482, cephalospolinase-producing; 10^6 cells per ml; read-out: MIC
Text: as §1, §3

Pro. vulgaris GN76** = conditions: Proteus vulgaris, 20 h; Pro. vulgaris GN76, cephalospolinase-producing; 10^6 cells per ml; read-out: MIC
Text: as §1, §3

[1] = St. aureus F-137, penicillinase-producing, 10^6 cells per ml, read-out: MIC
[2] = S68, Ps. aeruginosa S-68, 10^6 cells per ml, 37° C., 20 hours, read-out: MIC
[3] = St. aureus FDA209P, 10^6 cells per ml, 37° C., 20 hours, read-out: MIC
[4] = Ent. cloacae IID977, 10^6 cells per ml, 37° C., 20 hours, read-out: MIC
[5] = Ps. aeruginosa IFO3445, 10^6 cells per ml, 37° C., 20 hours, read-out: MIC
[6] = E. coli NIHJ JC-2, 10^6 cells per ml, 37° C., 20 hours, read-out: MIC
[7] = T216, 10^6 cells per ml, 20 hours, read-out: MIC
[8] = Pro. vulgaris GN3027, 10^6 cells per ml, 37° C., 20 hours, read-out: MIC
[9] = T111, 10^6 cells per ml, 20 hours, read-out: MIC

Row | Structure (SMILES) | MIC (Kl. pneumoniae Y-4*) [µg/mL] | MIC (St. aureus F-137*; [1]) [µg/mL] | MIC (E. coli TK-3*) [µg/mL] | MIC (Ps. aeruginosa GN3379*; 20 h, read-out: MIC) [µg/mL] | MIC (Ps. aeruginosa S-68; [2]) [µg/mL] | MIC (St. aureus FDA209P; [3]) [µg/mL] | MIC (Aci. antitratus A-6) [µg/mL] | MIC (Kl. pneumoniae Y-41) [µg/mL] | MIC (Ent. cloacae IID977; [4]) [µg/mL] | MIC (E. coli TK-111) [µg/mL] | MIC (Pro. mirabilis T-111; T111, 20 h, 10^6 cells per ml) [µg/mL] | MIC (Kl. pneumoniae Y-50) [µg/mL] | MIC (Ps. aeruginosa IFO3445; [5]) [µg/mL] | MIC (E. coli GN5482**) [µg/mL] | MIC (Pro. vulgaris GN76**) [µg/mL] | MIC (Ps. aeruginosa GN3379*; GN3379, 20 h) [µg/mL] | MIC (E. coli NIHJ JC-2; [6]) [µg/mL] | MIC (Pro. morganii T-216; [7]) [µg/mL] | MIC (Pro. vulgaris GN3027; [8]) [µg/mL] | MIC (Ps. aeruginosa GN918**; 20 h, read-out: MIC) [µg/mL] | further results
1 | O=C(O)c1cn(-c2ccc(O)cc2F)c(-c2ccc(N3CCOCC3)cc2)cc1=O | 25 (≈ 60.9 µM) | 0.78 (≈ 1.9 µM) | 3.13 (≈ 7.63 µM) | 50 (≈ 122 µM) | 25 (≈ 60.9 µM) | 0.78 (≈ 1.9 µM) | 6.25 (≈ 15.2 µM) | 12.5 (≈ 30.5 µM) | 6.25 (≈ 15.2 µM) | 0.39 (≈ 0.95 µM) | 12.5 (≈ 30.5 µM) | 1.56 (≈ 3.8 µM) | 100 (≈ 244 µM) | 0.39 (≈ 0.95 µM) | 6.25 (≈ 15.2 µM) |  |  |  |  |  | MIC (E. coli NIHJ JC-2): 1.56 µg/mL (≈ 3.8 µM); MIC (Pro. morganii T-216; T216, 20 h, 10^6 cells per ml): 12.5 µg/mL (≈ 30.5 µM); MIC (Pro. vulgaris GN3027): 1.56 µg/mL (≈ 3.8 µM); MIC (Ps. aeruginosa GN918**; GN918, 20 h): 12.5 µg/mL (≈ 30.5 µM)
2 | CC(=O)Oc1ccc(-n2cc(C(=O)O)c(=O)cc2-c2ccc(N(C)C)cc2)cc1 | 3.13 (≈ 7.98 µM) | 0.1 (≈ 0.255 µM) | 0.39 (≈ 0.994 µM) |  |  | 0.1 (≈ 0.255 µM) | 0.2 (≈ 0.51 µM) | 1.56 (≈ 3.98 µM) |  | ≤ 0.05 | 3.13 (≈ 7.98 µM) | 0.39 (≈ 0.994 µM) |  | ≤ 0.05 | 0.39 (≈ 0.994 µM) | 3.13 (≈ 7.98 µM) | 0.2 (≈ 0.51 µM) | 0.78 (≈ 1.99 µM) | 0.1 (≈ 0.255 µM) | 0.78 (≈ 1.99 µM) | MIC (Ps. aeruginosa S-68; S68, 20 h): 3.13 µg/mL (≈ 7.98 µM); MIC (Ent. cloacae IID977): 1.56 µg/mL (≈ 3.98 µM); MIC (Ps. aeruginosa IFO3445; IFO3445, 20 h): 3.13 µg/mL (≈ 7.98 µM)
3 | O=C(O)c1cn(-c2ccc(O)cc2)c(-c2ccc(-c3ccccc3)cc2)cc1=O | 12.5 (≈ 32.6 µM) | ≤ 0.05 | 0.78 (≈ 2.03 µM) | 100 (≈ 261 µM) |  | ≤ 0.05 | 0.39 (≈ 1.02 µM) | 12.5 (≈ 32.6 µM) | 3.13 (≈ 8.16 µM) | 0.1 (≈ 0.261 µM) |  | 0.39 (≈ 1.02 µM) | 25 (≈ 65.2 µM) | ≤ 0.05 | 0.78 (≈ 2.03 µM) |  | 0.39 (≈ 1.02 µM) | 1.56 (≈ 4.07 µM) | 0.2 (≈ 0.522 µM) | 1.56 (≈ 4.07 µM) | MIC (Ps. aeruginosa S-68; S68, 20 h): 12.5 µg/mL (≈ 32.6 µM); MIC (Pro. mirabilis T-111; [9]): 3.13 µg/mL (≈ 8.16 µM)
4 | Cc1ccc(-c2cc(=O)c(C(=O)O)cn2-c2ccc(O)cc2)s1 | 1.56 (≈ 4.77 µM) | 0.2 (≈ 0.611 µM) | 0.2 (≈ 0.611 µM) | 3.13 (≈ 9.56 µM) | 3.13 (≈ 9.56 µM) | 0.2 (≈ 0.611 µM) | 0.39 (≈ 1.19 µM) | 0.78 (≈ 2.38 µM) | 0.78 (≈ 2.38 µM) | ≤ 0.05 |  | 0.2 (≈ 0.611 µM) | 3.13 (≈ 9.56 µM) | ≤ 0.05 | 0.2 (≈ 0.611 µM) |  | 0.2 (≈ 0.611 µM) | 0.39 (≈ 1.19 µM) | ≤ 0.05 | 0.78 (≈ 2.38 µM) | MIC (Pro. mirabilis T-111; [9]): 3.13 µg/mL (≈ 9.56 µM)
5 | O=C(O)c1cn(-c2ccc(O)cc2)c(-c2ccc3cccnc3c2)cc1=O | 12.5 (≈ 34.9 µM) |  | 0.39 (≈ 1.09 µM) |  |  |  | 25 (≈ 69.8 µM) | 6.25 (≈ 17.4 µM) | 3.13 (≈ 8.73 µM) | 0.39 (≈ 1.09 µM) |  | 1.56 (≈ 4.35 µM) | 25 (≈ 69.8 µM) | ≤ 0.05 | 3.13 (≈ 8.73 µM) | 12.5 (≈ 34.9 µM) | 0.78 (≈ 2.18 µM) |  | 0.39 (≈ 1.09 µM) | 3.13 (≈ 8.73 µM) | MIC (St. aureus F-137*): 1.56 µg/mL (≈ 4.35 µM); MIC (Ps. aeruginosa S-68; S68, 20 h): 12.5 µg/mL (≈ 34.9 µM); MIC (St. aureus FDA209P): 1.56 µg/mL (≈ 4.35 µM); MIC (Pro. mirabilis T-111; [9]): 25 µg/mL (≈ 69.8 µM); MIC (Pro. morganii T-216; T216, 20 h, 10^6 cells per ml): 6.25 µg/mL (≈ 17.4 µM)
6 | CN(C)c1ccc(-c2cc(=O)c(C(=O)O)cn2-c2ccc(O)c(F)c2)cc1 | 3.13 (≈ 8.5 µM) | 0.39 (≈ 1.06 µM) | 0.78 (≈ 2.12 µM) |  | 1.56 (≈ 4.23 µM) | 0.39 (≈ 1.06 µM) | 0.39 (≈ 1.06 µM) | 3.13 (≈ 8.5 µM) | 1.56 (≈ 4.23 µM) | 0.1 (≈ 0.271 µM) | 3.13 (≈ 8.5 µM) | 0.39 (≈ 1.06 µM) |  | ≤ 0.05 | 0.78 (≈ 2.12 µM) | 3.13 (≈ 8.5 µM) | 0.39 (≈ 1.06 µM) | 1.56 (≈ 4.23 µM) | 0.2 (≈ 0.543 µM) | 12.5 (≈ 33.9 µM) | MIC (Ps. aeruginosa IFO3445; IFO3445, 20 h): 3.13 µg/mL (≈ 8.5 µM)
